Measurements published in US11180510B2, “Xanthine derivatives and uses thereof as inhibitors of bromodomains of BET proteins” (Centre national de la recherche scientifique, priority 2017, dated 2021).
Like-named read-outs stand apart in the source and are kept apart here.

Key:
Brd2(BD1) = target: T1, Brd2(BD1) (Homo sapiens, UniProt P25440); test: HTRF BET selectivity profile, Brd2(BD1); type: binding; conditions: for IC50: read-out: Brd2(BD1) IC50; for Ratio 2-1 vs 2-2: selectivity Brd2(BD1) vs Brd2(BD2), HTRF IC50
T1 construct: GST tagged bromodomain proteins were purchased from BPS Bioscience; purchased BPS Bioscience
Procedure: (§1) HTRF assays were performed in white 384 Well Small Volume™ HiBase Polystyrene Microplates (Greiner) with a total working volume of 20 μL. Compounds were dispensed, with 100 nL per well (0.5% final DMSO), from a concentration stock of 10 mM in 100% DMSO and with serial DMSO dilutions, using an Echo® 550 robot from the Access Labcyte platform (Labcyte) and based on the transfer of liquid by acoustic wave. Then, 19.5 μL of buffer is added, using a Multidrop Combi (Thermo Fisher Scientific). […] All HTRF reagents (donor and acceptor) were purchased from CisBio Bioassays and reconstituted according to the supplier protocols. The peptide was purchased from Genic Bio Synthetic. The BRD4(1) protein was produced and purified in the laboratory.
(§2) Percentage of inhibition was calculated using the following equation: % inhibition=[(compound signal)−(min signal)]/[(max signal)−(min signal)]*100, where ‘max signal’ is the signal ratio with the compound vehicle alone (DMSO) and ‘min signal’ the signal ratio without peptide.
(§3) Selectivity profiles of bromodomain inhibitors were performed as described in HTRF screen section. […] HTRF detection reagents (EPIgeneous™ Binding Domain kits) were purchased from Cisbio Bioassays and used according to supplier's protocol. GST tagged bromodomain proteins were purchased from BPS Bioscience and histone peptide from Genic Bio Synthetic.

Jurkat cells = test: Cell Titer-Glo cell viability assay, Jurkat; type: cell-based; conditions: Homo sapiens, 72 h, mean of three experiments, NA = IC50 > maximal concentration used
Procedure: The human leukemia cell line Jurkat (ATCC® TIB-152) and Molm14 was maintained in RPMI-1640 medium or MEMα, respectively and supplemented both with 10% FBS at 37° C. and 5% CO2.
In antiproliferative assays, compounds were assayed for their growth inhibiting activity towards the described cancer cell lines using the Cell Titer-Glo Luminescent Cell Viability Assay as described by the manufacturer (Promega Corporation). Briefly, 10.000 cells were plated onto 96 well-plates (white with clear bottom (3610, Corning Costar)) in 90 μL media per well immediately before assay. 10 μL of compounds were added at different concentrations (ranging from 50 μM to 6 nM) to each well and cell cultures were incubated 37° C. during 72 h. Vehicle (DMSO) was used as negative control, JQ1 (a pan-BET inhibitor) was used as positive control and all compounds were tested in constant percentage of DMSO (1%). After addition of 50 μL Cell Titer-GLO, shaking 2 minutes and incubating at room temperature 10 minutes, the Luminescence was measured using a Centro luminometer LB960 (Berthold). Dose-response curves were generated and effective dose 50 values (EC50) were calculated using non-linear regression analysis (Graph Pad Prism).

BRD4(BD1) [1] = target: T2, BRD4(BD1) (Homo sapiens, UniProt O60885); test: HTRF assay, BRD4(BD1)/histone peptide interaction; type: binding; parameters: made in house; conditions: for IC50: HTRF; for Ratio 4-1 vs 4-2: selectivity Brd4(BD1) vs Brd4(BD2), HTRF IC50
Procedure: as §1, §2, §3

Brd3(BD1) = Brd3(BD1) (Homo sapiens, UniProt Q15059); test: HTRF BET selectivity profile, Brd3(BD1); type: binding; parameters: GST tagged bromodomain proteins were purchased from BPS Bioscience; purchased BPS Bioscience; conditions: for Ratio 3-1 vs 3-2: selectivity Brd3(BD1) vs Brd3(BD2), HTRF IC50
Procedure: as §1, §2, §3

BRD4(BD1) [2] = target: T2, BRD4(BD1); test: Isothermal Titration Calorimetry; type: binding; conditions: ITC; read-out: Binding affinity (Kd) to BRD4(1) by Isothermal Titration Calorimetry
Procedure: FIG. 1. Isothermal Titration Calorimetry (ITC) of 43c. Thermogram (top) and non-linear least squares fit model of the integrated data (bottom) at 15° C. of Brd4 (BD1) […] as a function of the molar ratio of ligand to the protein.
ITC was used to evaluate the thermodynamics parameters of the binding between BRD4 (BD1) and the selected compounds. Titrations were carried out on a MicroCal ITC200 microcalorimeter (GE Healthcare, Piscataway, N.J.). Each experiment was designed using a titrant concentration (protein in the syringe generally between 100 and 400 μM) set 10 to 15 times the analyte concentration (compound in the cell generally between 10 and 40 μM) and using 13 injections at 25° C. A first small injection (generally 0.2 μL) was included in the titration protocol in order to remove air bubbles trapped in the syringe prior titration. Raw data were scaled after setting the zero to the titration saturation heat value. Integrated raw ITC data were fitted to a one site non-linear least squares fit model using the MicroCal Origin plugin as implemented in Origin 7 (Origin Lab). Finally, ΔG and TΔS values were calculated from the fitted ΔH and KA values using the equations ΔG=−R.T.inKA and ΔG=ΔH−TΔS.

Brdt(BD1) = target: T3, Brdt(BD1) (Homo sapiens, UniProt Q58F21); test: HTRF BET selectivity profile, Brdt(BD1); type: binding
T3 construct: GST tagged bromodomain proteins were purchased from BPS Bioscience; purchased BPS Bioscience
Procedure: (§4) HTRF assays were performed in white 384 Well Small Volume™ HiBase Polystyrene Microplates (Greiner) with a total working volume of 20 μL. Compounds were dispensed, with 100 nL per well (0.5% final DMSO), from a concentration stock of 10 mM in 100% DMSO and with serial DMSO dilutions, using an Echo® 550 robot from the Access Labcyte platform (Labcyte) and based on the transfer of liquid by acoustic wave. Then, 19.5 μL of buffer is added, using a Multidrop Combi (Thermo Fisher Scientific). Finally, for each assay, 200 nL of master mix (protein+donor+acceptor) and 200 nL of peptide Is added in the assay wells according to the final concentration and buffer described in Table 3, using the Echo® 550 robot (Labcyte). The IC50 measurements were performed in triplicates (Table 2 and 3). All HTRF reagents (donor and acceptor) were purchased from CisBio Bioassays and reconstituted according to the supplier protocols. The peptide was purchased from Genic Bio Synthetic. The BRD4(1) protein was produced and purified in the laboratory. HTRF signals were measured, after a final incubation (3 h or 6 h or overnight at room temperature or 4° C., according to the bromodomain), using a PHERAstar FS (BMG Labtech) with an excitation filter at 337 nm and fluorescence wavelength measurement at 620 and 665 nm, an integration delay of 60 μs and an integration time of 500 μs. Results were analyzed with a two-wavelengths signal ratio: [intensity (665 nm)/intensity (620 nm)]*104.
as §2, §3

Brd4(BD2) = target: T4, Brd4(BD2) (Homo sapiens, UniProt O60885); test: HTRF BET selectivity profile, Brd4(BD2); type: binding
T4 construct: GST tagged bromodomain proteins were purchased from BPS Bioscience; purchased BPS Bioscience
Procedure: as §4, §2, §3

Brd2(BD2) = target: T5, Brd2(BD2) (Homo sapiens, UniProt P25440); test: HTRF BET selectivity profile, Brd2(BD2); type: binding; conditions: read-out: Brd2(BD2) IC50
T5 construct: GST tagged bromodomain proteins were purchased from BPS Bioscience; purchased BPS Bioscience
Procedure: as §1, §2, §3

Brd3(BD2) = target: T6, Brd3(BD2) (Homo sapiens, UniProt Q15059); test: HTRF BET selectivity profile, Brd3(BD2); type: binding
T6 construct: GST tagged bromodomain proteins were purchased from BPS Bioscience; purchased BPS Bioscience
Procedure: as §4, §2, §3

[3] = mean of three experiments, NA = IC50 > 50 μM, read-out: Brd4(8D1) IC50
[4] = triplicates, NA = IC50 > maximal concentration of compound used

T1 sequence (P25440 74-180 limits assumed): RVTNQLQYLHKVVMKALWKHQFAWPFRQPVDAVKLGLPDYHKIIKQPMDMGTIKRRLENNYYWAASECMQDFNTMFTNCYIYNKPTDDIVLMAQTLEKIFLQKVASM
Brd3(BD1), sequence (Q15059 34-140 limits assumed): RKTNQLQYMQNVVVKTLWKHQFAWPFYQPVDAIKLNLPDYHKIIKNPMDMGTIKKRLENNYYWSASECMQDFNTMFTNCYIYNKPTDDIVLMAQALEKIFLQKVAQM
T5 sequence (P25440 344-453 limits assumed): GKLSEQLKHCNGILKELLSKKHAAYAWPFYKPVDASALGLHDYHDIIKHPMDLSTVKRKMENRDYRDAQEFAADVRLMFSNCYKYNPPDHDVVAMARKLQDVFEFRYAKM
T6 sequence (Q15059 306-415 limits assumed): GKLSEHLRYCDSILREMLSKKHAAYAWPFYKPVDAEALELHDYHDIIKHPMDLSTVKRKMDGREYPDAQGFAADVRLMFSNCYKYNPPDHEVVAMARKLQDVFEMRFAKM

Compound	IC50 (Brd2(BD1))	Ratio 2-1 vs 2-2 (Brd2(BD1))	IC50 (BRD4(BD1) [1]; [3])	IC50 (BRD4(BD1) [1]; [4])	Ratio 4-1 vs 4-2 (BRD4(BD1) [1])	IC50 (Brd3(BD1))	Ratio 3-1 vs 3-2 (Brd3(BD1))	Kd (BRD4(BD1) [2])	IC50 (Brdt(BD1))	IC50 (Brd4(BD2))	IC50 (Brd2(BD2))	IC50 (Brd3(BD2))	IC50 (Jurkat cells)
O=C1CCCc2cc(S(=O)(=O)NCC3CCC(C(=O)NCCc4cccs4)CC3)ccc2N1 (single isomer, unassigned) [Compound 5b, 4-((2-oxo-2,3,4,5-tetrahydro-1H-benzo[b]azepine-7-sulfonamido)methyl)-N-(2-(thiophen-2-yl)ethyl)cyclohexanecarboxamide]	6.35 µM	>8	3.83 µM	3.8 µM	>13	2.38 µM	>21	2.2 µM	14.6 µM				9.3 µM
O=C1CCCc2cc(S(=O)(=O)NCC3CCC(C(=O)NCCc4cccs4)CC3)ccc2N1 (single isomer, unassigned) [Compound 5c]				7 µM				2.8 µM					
O=C1CCCc2cc(S(=O)(=O)C3CCC(C(=O)NCCc4ccccn4)CC3)ccc2N1 (centres unmarked) [Compound 7a]	16.1 µM	0.4	9.55 µM	9.6 µM	2	22.2 µM	2	3.5 µM	9.16 µM	20.8 µM	7.11 µM	47.2 µM	
O=C1CCCc2cc(S(=O)(=O)NCC3CCC(C(=O)NCCc4ccccn4)CC3)ccc2N1 (centres unmarked) [Compound 7b]				19 µM				8.8 µM					

The next lines start with results.

IC50 (Brd2(BD1))	Ratio 2-1 vs 2-2 (Brd2(BD1))	IC50 (BRD4(BD1) [1]; [3])	IC50 (BRD4(BD1) [1]; [4])	Ratio 4-1 vs 4-2 (BRD4(BD1) [1])	IC50 (Brd3(BD1))	Ratio 3-1 vs 3-2 (Brd3(BD1))	Kd (BRD4(BD1) [2])	IC50 (Brdt(BD1))	IC50 (Brd4(BD2))	IC50 (Brd2(BD2))	IC50 (Brd3(BD2))	Compound	IC50 (Jurkat cells)
10.3 µM	3	15.7 µM	16 µM	>3	5.05 µM	>10	3.4 µM	9.17 µM		33.9 µM		Cc1noc(C)c1CCNC(=O)C1CCC(CNS(=O)(=O)c2ccc3c(c2)CCCC(=O)N3)CC1 (centres unmarked) [Compound 9a]	
			7.8 µM				2.2 µM					Cc1noc(C)c1CNC(=O)c1ccc(CNS(=O)(=O)c2ccc3c(c2)CCCC(=O)N3)cc1 [Compound 15c]	
8.7 µM	>6	10.9 µM	11 µM	>5	8.62 µM	>6	5.8 µM	12.5 µM				Cc1noc(C)c1CCNC(=O)c1ccc(CNS(=O)(=O)c2ccc3c(c2)CCCC(=O)N3)cc1 [Compound 16a]	
